Experimental data published in patent EP0821956A1, “Method for treating disruptive behavior disorders” (ELI LILLY AND COMPANY, priority 1996, dated 1998).

Experiments:
[1] = target: ^3H-oxotremorine-M binding (muscarinic receptors); assay: 3H-oxotremorine-M binding study; conditions: inhibition of binding of ^3H-oxotremorine-M; read-out: inhibition constant (Ki)
[2] = target: D2 receptor subtype (Homo sapiens, UniProt P14416); assay: pharmacological studies at the D2 receptor subtype
[3] = target: m4 receptors (Homo sapiens, UniProt P08173); assay type: cell-based; conditions: CHO m4 cells treated with pertussis toxin
Chain of m4 receptors (P08173 whole entry): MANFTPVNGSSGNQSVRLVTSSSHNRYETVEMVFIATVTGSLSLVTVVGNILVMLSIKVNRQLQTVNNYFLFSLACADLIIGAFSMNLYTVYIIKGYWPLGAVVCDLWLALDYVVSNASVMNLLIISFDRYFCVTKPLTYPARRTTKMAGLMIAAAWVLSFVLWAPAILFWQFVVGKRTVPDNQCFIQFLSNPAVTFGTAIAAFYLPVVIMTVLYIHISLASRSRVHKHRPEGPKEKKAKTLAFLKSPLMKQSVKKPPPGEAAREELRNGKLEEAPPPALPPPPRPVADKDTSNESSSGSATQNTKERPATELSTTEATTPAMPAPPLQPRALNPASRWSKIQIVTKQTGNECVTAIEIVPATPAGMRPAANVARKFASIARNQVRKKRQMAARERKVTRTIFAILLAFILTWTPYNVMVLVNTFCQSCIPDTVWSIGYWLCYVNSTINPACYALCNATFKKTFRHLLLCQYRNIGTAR

Chain of D2 receptor subtype (P14416 whole entry): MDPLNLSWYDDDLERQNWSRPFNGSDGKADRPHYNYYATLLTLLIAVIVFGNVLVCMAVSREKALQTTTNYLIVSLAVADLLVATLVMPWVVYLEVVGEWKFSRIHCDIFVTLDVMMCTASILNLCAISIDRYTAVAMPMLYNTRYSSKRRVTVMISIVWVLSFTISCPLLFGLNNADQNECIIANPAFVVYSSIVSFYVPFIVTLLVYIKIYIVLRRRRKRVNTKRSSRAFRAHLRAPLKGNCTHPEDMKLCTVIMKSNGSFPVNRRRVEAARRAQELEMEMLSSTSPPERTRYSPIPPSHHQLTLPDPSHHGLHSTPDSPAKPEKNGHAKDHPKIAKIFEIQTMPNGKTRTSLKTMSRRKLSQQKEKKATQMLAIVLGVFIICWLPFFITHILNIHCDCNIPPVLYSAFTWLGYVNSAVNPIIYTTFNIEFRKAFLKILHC

In the case of `CCCCCCOc1nsnc1C1=CCCN(C)C1` [xanomeline, 3-(4-hexyloxy-1,2,5-thiadiazol-3-yl)-1,2,5,6-tetrahydro-1-methylpyridine], the Ki [1] is reported as 2 nM, the “activity at the D2 receptor subtype” value [2] is reported as “active” and the “formation of cAMP” value [3] is reported as “efficaciously and potently stimulated the formation of cAMP”.
